Measurements: patent US20120245180A1, “COMBINATION” (GlaxoSmithKline LLC, priority 2009, published 2012)
Read-outs that look alike come from different tables or passages of the source.

Tests used:
[1] = system: Human breast tumor cell lines; assay: Cell growth inhibition, panel of breast tumor cell lines; type: cell-based
Method: Human tumor cell lines from hepatocellular carcinoma (HCC), C3A, Hep3B, HepG2, PLC/PRF/5, SNU182, SNU387, SNU398, SNU423, SNU449 and SNU475 were purchased from the ATCC. […]
Cells were seeded in a 96-well tissue culture plate (NUNC 136102) of RPMI medium containing 10% FBS at 500-2,000 cells per well. […] ATP levels were determined by adding Cell Titer Glo® (Promega) according to the manufacturer's protocol. Briefly, Cell Titer Glo® was added to each plate, incubated for 20 minutes then luminescent signal was read on the SpectraMax L plate reader with a 0.5 sec integration time. […]
(§1) Inhibition of cell growth was estimated after treatment with compound or combination of compounds for three days and comparing the signal to cells treated with vehicle (DMSO). Cell growth was calculated relative to vehicle (DMSO) treated control wells. […]
(§2) Combination effects on potency were evaluated using the Combination Index (CI) and Excess Over Highest Single Agent (EHOSA) methods.
DNA Copy number data on the HER2 gene was collected for all breast cancer cell lines using the Affymetrix 500K chip (Affymetrix Inc, Sunnyvale, Calif.). […] All ‘SNP Chip’ images ('CEL files'), were extracted, read and normalized using the dChip software package (Lin et al. 2004. Bioinformatics. 20:1233-40). […]

[2] = system: hepatocellular carcinoma (HCC) cell lines; assay: Cell growth inhibition, panel of 10 HCC cell lines; type: cell-based, human; settings: for IC50: Homo sapiens
Method: (§3) Human tumor cell lines from hepatocellular carcinoma (HCC), C3A, Hep3B, HepG2, PLC/PRF/5, SNU182, SNU387, SNU398, SNU423, SNU449 and SNU475 were purchased from the ATCC. Human breast tumor cell lines, HCC2218, HCC1419, BT-474, SK-BR-3, UACC893, JIMT-1, MDA-MB-361, HCC202, MDA-MB-175-VII, HCC1569, HCC1937, HCC38, MDA-MB-157, HCC1954, HCC1500, BT483, KPL-1, SUM225 and ZR-75-1 from ATCC, SUM52 and SUM190 from Asterand, PLC (Detroit Mich.), were cultured in RPMI 1640 medium containing 10% FBS; SKBR3-W13 and BT-474-J4 cultured in RPMI 1640 medium containing 10% FBS and 1 μM lapatinib; KPL4 line was kindly provided by Dr Junichi Kurebayashi (Kawasaki Medical School, Okayama, Japan) and cultured in DMEM containing 5% FBS. JIMT-1 from European Collection of Cell Cultures (UK), is a line derived from a patient clinically resistant to trastuzumab (Herceptin®). SK-BR-3-W13 is a single cell clone isolated by a cloning cylinder after a single treatment of SK-BR-3 cells with 0.5 μM lapatinib. BT-474-J4 is a single cell clone derived from a pool of BT-474 cells that were selected to grow in lapatinib to a concentration of 3 μM.
(§4) Cells were seeded in a 96-well tissue culture plate (NUNC 136102) of RPMI medium containing 10% FBS at 500-2,000 cells per well. Approximately 24 hours after plating, cells were exposed to ten, two-fold or three-fold serial dilutions of either Compound A or B or the combination of the two agents at a 2:1 molar ratio (Compounds A and B respectively). In some cases, cells were grown in RPMI media containing 10% FBS and in the presence or absence of 2 ng/mL hepatocyte growth factor (HGF). Cells were incubated in the presence of compounds for 3 days. ATP levels were determined by adding Cell Titer Glo® (Promega) according to the manufacturer's protocol. Briefly, Cell Titer Glo® was added to each plate, incubated for 20 minutes then luminescent signal was read on the SpectraMax L plate reader with a 0.5 sec integration time. All assays were run at least in duplicate.
as §1, with “wells. Concentration of compound that inhibits 50% of control cell growth (IC50) was back-interpolated when y=50% of DMSO treated control wells using nonlinear regression with the equation:” for “wells.”
(§5) where A is the minimum response (ymin), B is the maximum response (Ymax), C is the inflection point of the curve (EC50) and D is the Hill coefficient.
as §2

SK-BR-3 = assay: Cell growth inhibition assay, breast tumor cell line (Cell Titer Glo); type: cell-based; settings: Homo sapiens, 72 h, SK-BR-3 (HER2+), 3 days
Method: as §3, §4
as §1, with “wells. Concentration of compound that inhibits 50% of control cell growth (IC50) was back-interpolated when y=50% of DMSO treated control wells using nonlinear regression with the equation:” for “wells.”
as §5, §2
(§6) DNA Copy number data on the HER2 gene was collected for all breast cancer cell lines using the Affymetrix 500K chip (Affymetrix Inc, Sunnyvale, Calif.). Briefly DNA was extracted from each line, digested with the restriction enzyme Nsp or Sty, ligated to an adaptor and amplified by PCR. After PCR, DNA was fragmented, labeled, denatured, and hybridized to the Affymetrix 500K chip. Upon completion of hybridization, each assay was washed and stained. Image data were acquired. Similarly collected data from a panel 10 diploid non-tumorigenic lymphoblastic cell lines were used to calculate DNA copy number. All ‘SNP Chip’ images ('CEL files'), were extracted, read and normalized using the dChip software package (Lin et al. 2004. Bioinformatics. 20:1233-40). SNP-wise ‘copy-number ratios’ (log2 scale) were calculated for all cancer cell lines using the lymphoblastic reference panel and analyzed by circular binary segmentation to reduce noise (Olshen et al. 2004. Biostatistics. 5:557-72). Cell lines with log2 ratios of HER2>0.65 were considered HER2+.

HCC1419 = assay: as above; type: cell-based; settings: Homo sapiens, 72 h, HCC1419 (HER2+), 3 days
Method: as §3, §4
as §1, with “wells. Concentration of compound that inhibits 50% of control cell growth (IC50) was back-interpolated when y=50% of DMSO treated control wells using nonlinear regression with the equation:” for “wells.”
as §5, §2, §6

HCC1937 = assay: as above; type: cell-based; settings: Homo sapiens, 72 h, HCC1937 (HER2−), 3 days
Method: as §3, §4
as §1, with “wells. Concentration of compound that inhibits 50% of control cell growth (IC50) was back-interpolated when y=50% of DMSO treated control wells using nonlinear regression with the equation:” for “wells.”
as §5, §2, §6

BT483 = assay: as above; type: cell-based; settings: Homo sapiens, BT-483, 72 h, BT483 (HER2−), 3 days
Method: as §3, §4
as §1, with “wells. Concentration of compound that inhibits 50% of control cell growth (IC50) was back-interpolated when y=50% of DMSO treated control wells using nonlinear regression with the equation:” for “wells.”
as §5, §2, §6

KPL4 = assay: as above; type: cell-based; settings: Homo sapiens, 72 h, KPL4 (HER2+), 3 days
Method: as §3, §4
as §1, with “wells. Concentration of compound that inhibits 50% of control cell growth (IC50) was back-interpolated when y=50% of DMSO treated control wells using nonlinear regression with the equation:” for “wells.”
as §5, §2, §6

SUM225 = assay: as above; type: cell-based; settings: Homo sapiens, 72 h, SUM225 (HER2+), 3 days
Method: as §3, §4
as §1, with “wells. Concentration of compound that inhibits 50% of control cell growth (IC50) was back-interpolated when y=50% of DMSO treated control wells using nonlinear regression with the equation:” for “wells.”
as §5, §2, §6

SUM52 = assay: as above; type: cell-based; settings: Homo sapiens, 72 h, SUM52 (HER2−), 3 days
Method: as §3, §4
as §1, with “wells. Concentration of compound that inhibits 50% of control cell growth (IC50) was back-interpolated when y=50% of DMSO treated control wells using nonlinear regression with the equation:” for “wells.”
as §5, §2, §6

HCC38 = assay: as above; type: cell-based; settings: Homo sapiens, 72 h, HCC38 (HER2−), 3 days
Method: as §3, §4
as §1, with “wells. Concentration of compound that inhibits 50% of control cell growth (IC50) was back-interpolated when y=50% of DMSO treated control wells using nonlinear regression with the equation:” for “wells.”
as §5, §2, §6

SUM190 = assay: as above; type: cell-based; settings: Homo sapiens, 72 h, SUM190 (HER2+), 3 days
Method: as §3, §4
as §1, with “wells. Concentration of compound that inhibits 50% of control cell growth (IC50) was back-interpolated when y=50% of DMSO treated control wells using nonlinear regression with the equation:” for “wells.”
as §5, §2, §6

HCC1569 = assay: as above; type: cell-based; settings: Homo sapiens, 72 h, HCC1569 (HER2−), 3 days
Method: as §3, §4
as §1, with “wells. Concentration of compound that inhibits 50% of control cell growth (IC50) was back-interpolated when y=50% of DMSO treated control wells using nonlinear regression with the equation:” for “wells.”
as §5, §2, §6

BT474-J4 = assay: as above; type: cell-based; settings: Homo sapiens, 72 h, BT474-J4 (HER2+), 3 days
Method: as §3, §4
as §1, with “wells. Concentration of compound that inhibits 50% of control cell growth (IC50) was back-interpolated when y=50% of DMSO treated control wells using nonlinear regression with the equation:” for “wells.”
as §5, §2, §6

[3] = read-out: Single agent IC50, Compound B
[4] = read-out: Single agent IC50, Compound A

`COc1ncc(-c2ccc3nccc(-c4ccnnc4)c3c2)cc1NS(=O)(=O)c1ccc(F)cc1F` [Compound B, 2,4-difluoro-N-{2-(methyloxy)-5-[4-(4-pyridazinyl)-6-quinolinyl]-3-pyridinyl}benzenesulfonamide] was tested, and the IC50 ([1]; all lines except HCC1937, SK-Br-3-W13 and MDA-MB-157) was < 100 nM, the IC50 ([2]; all 10 HCC lines) was < 103 nM and the IC50 (SK-BR-3; [3]) was 24 ± 20 nM. For the same compound, the IC50 (HCC1419; [3]) was 24 ± 14 nM, the IC50 (HCC1937; [3]) was 114 ± 63 nM and the IC50 (BT483; [3]) was 106 ± 81 nM. It also gave an IC50 (KPL4; [3]) of 3 ± 1 nM, an IC50 (SUM225; [3]) of 13 ± 14 nM and an IC50 (SUM52; [3]) of 4 nM. For the same compound, the IC50 (HCC38; [3]) was 95 ± 34 nM, the IC50 (SUM190; [3]) was 6 ± 3 nM and the IC50 (HCC1569; [3]) was 76 ± 42 nM. For the same compound, the IC50 (BT474-J4; [3]) was 14 ± 8 nM.
`CC(=O)Nc1cccc(-n2c(=O)n(C3CC3)c(=O)c3c(Nc4ccc(I)cc4F)n(C)c(=O)c(C)c32)c1` [Compound A, N-{3-[3-cyclopropyl-5-[(2-fluoro-4-iodophenyl)amino]-6,8-dimethyl-2,4,7-trioxo-3,4,6,7-tetrahydropyrido[4,3-d]pyrimidin-1(2H)-yl]phenyl}acetamide] was tested, and the IC50 ([1]; SUM52 and MDA-MB-17511) was ≤ 99 nM, the IC50 ([2]; SNU 182 and PLC/PRF/5 epithelial-like cell lines) was 1200 to 2800 nM and the IC50 ([2]; epithelial-like HCC cell lines HepG2, C3A and Hep3B) was < 37 nM. The IC50 ([2]; mesenchymal-like HCC cell lines SNU387 and SNU423) was 74 to 577 nM, the “sensitivity to cell growth inhibition” value ([2]; mesenchymal-like cell lines SNU398, SNU449 and SNU475) was “not sensitive” and the IC50 (SK-BR-3; [4]) was > 1000 nM. The IC50 (HCC1419; [4]) was > 1000 nM, the IC50 (HCC1937; [4]) was > 1000 nM and the IC50 (BT483; [4]) was > 1000 nM. The IC50 (KPL4; [4]) was > 1000 nM, the IC50 (SUM225; [4]) was > 1000 nM and the IC50 (SUM52; [4]) was 9 ± 5 nM. The IC50 (HCC38; [4]) was > 1000 nM, the IC50 (SUM190; [4]) was > 1000 nM and the IC50 (HCC1569; [4]) was > 1000 nM. The IC50 (BT474-J4; [4]) was > 1000 nM.
